In PubChem BioAssay AID2060511 (Molecular Pharmacology Branch, DTP, NCI, 2025):
Where “and” joins values, the source holds several entries; their conditions need not be identical. Equal values may be shown once.

System: 422866-222-R5-J1-PDC spheroids with HUVEC/MSC, viability
Assay: Anticancer human tumor 422866-222-R5-J1-PDC patient-derived pancreatic adenocarcinoma cell line growth inhibition [GQUAD]
Settings: for viability, T/C: stronger effect = lower value
Text: DNA G-quadruplex Stabilizer Agents in Combinations in Complex Spheroids
A high-throughput screen of multi-cell type tumor spheroids was designed to identify active combinations of DNA G-quadruplex stabilizer agents and targeted small molecules. Complex spheroids include a stromal component modeled by human endothelial cells (HUVEC) and fibroblasts modeled by human mesenchymal stem cells (MSCs). The concentration ranges selected for each drug and investigational agent were based upon clinically achievable concentrations if the clinical Cmax of the agent was known.
Compounds. The drugs and investigational agents: pidnarulex (CX-5461; NSC782164), APTO-253 (NSC789042), BRACO-19 (NSC847499), peposertib (NSC802822), ceralasertib (NSC780249), elimusertib (NSC800525), camonsertib (NSC841442), AZD-1390 (NSC803789), olaparib (NSC753686), talazoparib (NSC767125), ART-558 (NSC835418), sotorasib (NSC818433), MRTX-1133 (NSC836407), SN-38 (NSC673596), topotecan (NSC609699), etoposide (NSC141540), doxorubicin (NSC123127), gemcitabine (NSC613327), 5-fluorouracil (NSC19893), paclitaxel (NSC125973), vemurafenib (NSC761431), panobinostat (NSC761190), R-306465 (JNJ-16241199; NSC773264), adavosertib (NSC754352), TP-3654 (NSC805149), carboplatin (NSC241240), KSQ-4279 (NSC840948), and staurosporine (NSC755774) were obtained from the National Cancer Institute (NCI) Developmental Therapeutics Program Chemical Repository (34). The FDA-approved anticancer drug set is available from the NCI Developmental Therapeutics Program. […] The stock solutions were prepared in dimethyl sulfoxide (DMSO, Sigma-Aldrich, St. Louis, MO, cat. D2650) at 800-fold the tested concentration and stored at -70 degrees C prior to their use. All drugs and investigational agents were tested over a range starting from a high concentration at or near the clinical Cmax and decreasing in half-log increments. If the clinical Cmax for an agent had not been determined, the highest concentration tested was 10 microM.
2.3 Cell Culture. All cells were maintained in an incubator at 37 degrees C and 5% CO2 with 95% humidity. The PDC lines were cultured according to standard operating procedures established by the NCI PDMR. All PDCs were thawed and cultured in Matrigel-coated flasks prepared with a working solution of 1X Ham's F-12 nutrient mix, without supplementation (Invitrogen, cat. 11765054), 100 U/mL penicillin-streptomycin (Invitrogen, cat. 15140122), and 2.5% Matrigel (Corning Inc., cat. 354248) for the first three passages. The 857933-349-R-J2-PDC line was cultured in 6C/Colon 1B media, which includes advanced DMEM/F-12 (Thermo Fisher Scientific, cat. 12634028), 10 mM HEPES (Thermo Fisher Scientific, cat. 15630080), 1X GlutaMAX supplement (Thermo Fisher Scientific, cat. 35050061), 0.1 mg/mL primocin (InvivoGen, cat. ant-pm-2), 10% defined fetal bovine serum, heat inactivated (HyClone Laboratories Inc., cat. SH30070.03HI), 50% L-WRN conditioned media (ATCC, cat. CRL-3276), 1.25 mM N-Acetyl-L-cysteine (Sigma-Aldrich, cat. A9165), 10 mM nicotinamide (Sigma-Aldrich, cat. N0636), 1X B-27 supplement (Thermo Fisher Scientific, cat. 17504044), 1X N-2 supplement (Thermo Fisher Scientific, cat. 17502048), 10 microM Y-27632 dihydrochloride (Tocris Bioscience, cat. 1254), and 50 ng/mL human EGF recombinant protein (Thermo Fisher Scientific, cat. PHG0311). The 485176-168-R4-J1-PDC line was cultured in Panc media, which includes all 6C/Colon 1B media components plus 100 ng/mL human FGF-10 (Thermo Fisher Scientific, cat. 100-26), 500 nM SB-431542 (Selleckchem, cat. S1067), and gastrin (Tocris, cat. 3006).
[…]

[1] = curve of first compound, second compound 0.0316 µM
[2] = curve of first compound, second compound 0.1 µM
[3] = curve of first compound, second compound 0.316 µM
[4] = curve of first compound, second compound 1 µM
[5] = curve of first compound, second compound 3.16 µM
[6] = curve of first compound, second compound 10 µM
[7] = second compound 0.0316 µM, first compound 0.000999 µM
[8] = second compound 0.0316 µM, first compound 0.00316 µM
[9] = second compound 0.0316 µM, first compound 0.00999 µM
[10] = second compound 0.0316 µM, first compound 0.0316 µM
[11] = second compound 0.0316 µM, first compound 0.0999 µM
[12] = second compound 0.0316 µM, first compound 0.316 µM
[13] = second compound 0.1 µM, first compound 0.000999 µM
[14] = second compound 0.1 µM, first compound 0.00316 µM
[15] = second compound 0.1 µM, first compound 0.00999 µM
[16] = second compound 0.1 µM, first compound 0.0316 µM
[17] = second compound 0.1 µM, first compound 0.0999 µM
[18] = second compound 0.1 µM, first compound 0.316 µM
[19] = second compound 0.316 µM, first compound 0.000999 µM
[20] = second compound 0.316 µM, first compound 0.00316 µM
[21] = second compound 0.316 µM, first compound 0.00999 µM
[22] = second compound 0.316 µM, first compound 0.0316 µM
[23] = second compound 0.316 µM, first compound 0.0999 µM
[24] = second compound 0.316 µM, first compound 0.316 µM
[25] = second compound 1 µM, first compound 0.000999 µM
[26] = second compound 1 µM, first compound 0.00316 µM
[27] = second compound 1 µM, first compound 0.00999 µM
[28] = second compound 1 µM, first compound 0.0316 µM
[29] = second compound 1 µM, first compound 0.0999 µM
[30] = second compound 1 µM, first compound 0.316 µM
[31] = second compound 3.16 µM, first compound 0.000999 µM
[32] = second compound 3.16 µM, first compound 0.00316 µM
[33] = second compound 3.16 µM, first compound 0.00999 µM
[34] = second compound 3.16 µM, first compound 0.0316 µM
[35] = second compound 3.16 µM, first compound 0.0999 µM
[36] = second compound 3.16 µM, first compound 0.316 µM
[37] = second compound 10 µM, first compound 0.000999 µM
[38] = second compound 10 µM, first compound 0.00316 µM
[39] = second compound 10 µM, first compound 0.00999 µM
[40] = second compound 10 µM, first compound 0.0316 µM
[41] = second compound 10 µM, first compound 0.0999 µM
[42] = second compound 10 µM, first compound 0.316 µM
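Further: spheroids exposed to compounds for seven days before reading.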
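Wherever viability, T/C is given: percent viability relative to DMSO vehicle control taken as 100%.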

`Cn1ncnc1[C@H]1c2n[nH]c(=O)c3cc(F)cc(c23)N[C@@H]1c1ccc(F)cc1` + Cc1[nH]c2ccc(F)cc2c1-c1nc2c3cccnc3c3ncccc3c2[nH]1 gave an IC50 [1] of over 0.316 µM, an IC50 [2] of over 0.316 µM and an IC50 [3] of over 0.316 µM. It also gave an IC50 [4] of over 0.316 µM, an IC50 [5] of over 0.316 µM and an IC50 [6] of over 0.316 µM. For the same compound, the viability, T/C [7] was 92.4%, the viability, T/C [8] was 92.3% and the viability, T/C [9] was 105%. It also gave a viability, T/C [10] of 91.8%, a viability, T/C [11] of 86.5% and a viability, T/C [12] of 81.9%. It also gave a viability, T/C [13] of 99.5%, a viability, T/C [14] of 102% and a viability, T/C [15] of 102%. The viability, T/C [16] was 89.5%, the viability, T/C [17] was 97.3% and the viability, T/C [18] was 86.8%. It also gave a viability, T/C [19] of 105%, a viability, T/C [20] of 114% and a viability, T/C [21] of 83.2%. For the same compound, the viability, T/C [22] was 91.2%, the viability, T/C [23] was 91.4% and the viability, T/C [24] was 97.3%. The viability, T/C [25] was 89.6%, the viability, T/C [26] was 109% and the viability, T/C [27] was 104%. For the same compound, the viability, T/C [28] was 108%, the viability, T/C [29] was 94.3% and the viability, T/C [30] was 80.8%. For the same compound, the viability, T/C [31] was 93.1%, the viability, T/C [32] was 82.8% and the viability, T/C [33] was 80.4%. It also gave a viability, T/C [34] of 78.8%, a viability, T/C [35] of 94.3% and a viability, T/C [36] of 81.9%. The viability, T/C [37] was 87.5%, the viability, T/C [38] was 92.7% and the viability, T/C [39] was 87%. The viability, T/C [40] was 97.7%, the viability, T/C [41] was 81.1% and the viability, T/C [42] was 71.1%.
In the case of `Cn1ncnc1[C@H]1c2n[nH]c(=O)c3cc(F)cc(c23)N[C@@H]1c1ccc(F)cc1` + CN(C)c1ccc(Nc2c3ccc(NC(=O)CCN4CCCC4)cc3nc3cc(NC(=O)CCN4CCCC4)ccc23)cc1, the IC50 [1] is reported as over 0.316 µM, the IC50 [2] is reported as over 0.316 µM and the IC50 [3] is reported as over 0.316 µM. For the same compound, the IC50 [4] was over 0.316 µM, the IC50 [5] was over 0.316 µM and the IC50 [6] was over 0.316 µM. The viability, T/C [7] was 112%, the viability, T/C [8] was 93.7% and the viability, T/C [9] was 108%. For the same compound, the viability, T/C [10] was 97.2%, the viability, T/C [11] was 80.6% and the viability, T/C [12] was 75.1%. It also gave a viability, T/C [13] of 113%, a viability, T/C [14] of 95.9% and a viability, T/C [15] of 88%. For the same compound, the viability, T/C [16] was 93.5%, the viability, T/C [17] was 83% and the viability, T/C [18] was 75.7%. For the same compound, the viability, T/C [19] was 94.1%, the viability, T/C [20] was 90% and the viability, T/C [21] was 81.5%. The viability, T/C [22] was 85%, the viability, T/C [23] was 89.1% and the viability, T/C [24] was 67.3%. For the same compound, the viability, T/C [25] was 78.9%, the viability, T/C [26] was 81.3% and the viability, T/C [27] was 75.9%. For the same compound, the viability, T/C [28] was 91.5%, the viability, T/C [29] was 73.7% and the viability, T/C [30] was 72%. The viability, T/C [31] was 72.3%, the viability, T/C [32] was 69.7% and the viability, T/C [33] was 89.5%. For the same compound, the viability, T/C [34] was 83%, the viability, T/C [35] was 80.1% and the viability, T/C [36] was 80.3%. For the same compound, the viability, T/C [37] was 97.7%, the viability, T/C [38] was 85.1% and the viability, T/C [39] was 97.4%. It also gave a viability, T/C [40] of 90.4%, a viability, T/C [41] of 71.8% and a viability, T/C [42] of 82.1%.
In the case of `C#Cc1c(F)ccc2cc(O)cc(-c3ncc4c(N5CC6CCC(C5)N6)nc(OCC56CCCN5CC(F)C6)nc4c3F)c12` (stereo unspecified), the viability, T/C (compound 0.0316 µM) is reported as 98.8% and 99.8% and 86.7%, the viability, T/C (compound 0.1 µM) is reported as 95.5% and 91.4% and 77.4% and the viability, T/C (compound 0.316 µM) is reported as 94.1% and 82.6% and 77.7%. The viability, T/C (compound 1 µM) was 60.1% and 79% and 57.5%, the viability, T/C (compound 3.16 µM) was 41.3% and 43.9% and 36.5% and the viability, T/C (compound 10 µM) was 29.2% and 39.6% and 26.7%. The IC50 (curve of compound) was 1.77 µM and 2.7 µM and 1.53 µM.
